Laboratory results taken from patent US20180296530A1, “METHOD FOR TREATING ATOPIC DERMATITIS” (priority 2015, published 2018).

Columns and labels:
[1] = tested on: Patients aged 1 to 18 years with physician-diagnosed AD; test: Randomized double-blind placebo-controlled crossover clinical trial: AD severity by SCORAD index; format: in vivo, human; design: key to mean SCORAD index, first treatment period, before / mean SCORAD index, first treatment period, after: SCORAD index, range 1-103, higher = worse symptoms; key to Objective SCORAD index, Difference: objective SCORAD, range 0-83, higher = worse symptoms
Procedure: A randomized clinical study with a double-blind, placebo-controlled crossover design was performed. The institutional review committee of National Taiwan University Hospital approved the study protocol. This study conformed to the principles of the Declaration of Helsinki. Patients or their guardians provided written informed consent. Patients aged 1 to 18 years with physician-diagnosed AD involving at least 5% of the total body surface area were recruited from the pediatric and dermatology outpatient departments of the National Taiwan University Hospital from Aug. 1, 2012, through Jan. 31, 2013. Follow-up was completed on Apr. 13, 2013. Those patients with sleep problems occurring more than 3 days per week during the previous 3 months were eligible. The study participants were randomly assigned to 2 groups in a 1:1 ratio, with a block size of 4. One group received melatonin first and then placebo, and the other group received placebo first and then melatonin. The melatonin and placebo tablets were identical in appearance. The participants and their caregivers, treating physicians, those assessing outcomes, and those analyzing the data were all masked to group assignment. […] They were then randomized to receive oral melatonin, 3 mg/d (General Nutrition Corporation), or placebo (Standard Chem & Pharm Co, Ltd) at bedtime for 4 weeks. After a 2-week washout period, participants crossed to the alternate treatment. In this clinical trial, the primary study outcome was the Scoring Atopic Dermatitis (SCORAD) index for the evaluation of AD severity. Secondary outcomes included the objective sleep variables measured by actigraphy, the patient's subjective description of the change in sleep and dermatitis severity, the sleep variables measured by polysomnography, nocturnal urinary levels of 6-sulfatoxymelatonin, and serumtotal and allergen-specific IgE levels. Severity of AD was assessed using the SCORAD index (range, 1-103, with greater scores indicating worse symptoms) by the same physician (Y.-S.C.) blinded to the treatment randomization. The SCORAD index includes subjective visual analog scale scores from 0 to 10 (with greater numbers indicating worse symptoms) for degree of pruritus and sleep loss, which are referred to as the pruritus score and the subjective sleep score, respectively, in this study. The objective SCORAD index, which excludes the SCORAD score for subjective symptoms (range, 0-83, with greater scores indicating worse symptoms), was also used for analysis.

[2] = tested on: DNCB-induced AD mouse model; test: Example 5: histological examination of skin (H&E, toluidine blue, anti-CD3); format: in vivo, Balb/c mice; details: for Cumulative histological scores: positive control 14.8 ± 2.4; for Hyperplasia, epidermis and follicular epithelium, slight to moderate/severe: incidence / Hyperplasia, sebaceous gland and hair follicle, dermis and subcutis, slight to moderate: incidence / Inflammation, neutrophil, lymphocyte and mast cell, epidermis, dermis and subcutis, minimal to severe/high: incidence / Infundibular hyperkeratosis, hair follicle, dermis, minimal to slight: incidence / Necrosis, epidermis, slight: incidence / Pustule, epidermis, slight: incidence / Serocellular crust/parakeratosis, epidermis, slight: incidence / Vacuolization, epidermis, minimal to slight: incidence: skin, Day 20, 5 mice
Procedure: The protocol for establishing an AD mouse model in this Example was modified from those described previously. Briefly, referring to FIG. 4, DNCB-induced AD mouse model was prepared by the repeated applications of 20 μL of 1% DNCB in acetone/olive oil (4:1) to the outer and inner surfaces of mouse ears and 100 μL of the same solution to the shaved back skin once on days 1, 2, and 3. Mice of Control group were treated with the identical volumes of vehicle.
The DNCB-sensitized mice were randomly assigned to one of three groups: DNCB (Positive control), DNCB+3% topical melatonin (Treatment: low-dose), DNCB+5% topical melatonin (Treatment: high-dose). Each group (including Control group) consisted of 5 mice. From days 9 to 19, sensitized mice were challenged by applying 0.5% DNCB to the skin surfaces. For the two groups treated with topical melatonin groups, 0.3 mg of topical melatonin ointment (3% or 5% melatonin in Vaseline) was given together with DNCB during the challenge period. For DNCB group, 0.3 mg of Vaseline was given together with DNCB during the challenge period. For Control group, 0.3 mg of Vaseline was given from days 9 to 19. This experiment was ended at Day 20.
At the end of the experiment (Day 20), all the experimental animals were subjected to euthanization by carbon dioxide and the skin samples were collected for subsequent immunological and histological examinations. The skin of each mouse were fixed with 10% neutral-buffered formalin, and embedded in paraffin. Then, 4-μm-thick sections were cut and transferred onto slides. Deparaffinized skin sections were stained with hematoxylin and eosin (H&E) before they were examined at 200× magnification for evaluation of edema and polymorphonuclear leukocytes (PMN) number. To detect mast cell infiltration, deparaffinized skin sections were stained with toluidine blue. Polyclonal rabbit antibody against CD3 was used to stain T cells. The numbers of mast cells and T cells per 10 high power fields (HPF) were counted.
Further, degree of histopathological lesions of skin from each mouse was graded from one to five depending on severity: 1=minimal (<1%); 2=slight (1-25%); 3=moderate (26-50%); 4=moderate/severe (51-75%); and 5=severe/high (76-100%).

[3] = after vs before oral melatonin 3 mg/d, 4 weeks, mean
[4] = melatonin vs placebo, adjusted for age and sex
[5] = Treatment (high-dose): DNCB+5% topical melatonin, mean±SD, graded one to five
[6] = Treatment (high-dose): DNCB+5% topical melatonin
[7] = Treatment (low-dose): DNCB+3% topical melatonin, mean±SD, graded one to five
[8] = Treatment (low-dose): DNCB+3% topical melatonin

COc1ccc2[nH]cc(CCNC(C)=O)c2c1 [Melatonin, melatonin]
SCORAD index vs placebo, Wilcoxon signed rank test ([1]; FIGS. 2A and 2C, sensitivity analysis): apparently decreased the SCORAD index | patients who subjectively believed that their dermatitis had improved ([1]; after melatonin treatment, 17 of 36 (placebo 12 of 38 [32%])): 47% | Subjective sleep score, After ([1]; after oral melatonin 3 mg/d at bedtime for 4 weeks, mean): 3.8 | Pruritus score, After ([1]; after oral melatonin 3 mg/d at bedtime for 4 weeks, mean, score 0 to 10): 5.1 | Objective SCORAD index, After ([1]; after oral melatonin 3 mg/d at bedtime for 4 weeks, mean, score 0 to 83): 31.3 | SCORAD index, After ([1]; after oral melatonin 3 mg/d at bedtime for 4 weeks, mean, score 0 to 103): 40.2 | Objective SCORAD index, Difference [1, 3]: −8.2 | Pruritus score, Difference [1, 3]: −0.6 | SCORAD index, Difference [1, 3]: −9.9 | Subjective sleep score, Difference [1, 3]: −1.1 | mean reduction of the SCORAD index ([1]; in 4 weeks, oral melatonin 3 mg/d): 9.9 | decrease of the SCORAD index compared with placebo ([1]; linear mixed-effects model, adjusted for age and sex): 9.1 | decrease of the objective SCORAD index compared with placebo ([1]; linear mixed-effects model, no significant carryover effect (P=0.81), significant period effect (P=0.02)): 8.7 | mean SCORAD index, first treatment period, after ([1]; melatonin group, first treatment period, after oral 3 mg/d for 4 weeks): 42.3 | mean SCORAD index, first treatment period, before ([1]; melatonin group, first treatment period, before treatment): 49.5 | mean SCORAD index, second treatment period, after ([1]; melatonin group, second treatment period, after oral 3 mg/d for 4 weeks): 38.3 | mean SCORAD index, second treatment period, before ([1]; melatonin group, second treatment period, before treatment): 48.7 | Subjective sleep score, Before ([1]; melatonin phase, before treatment, mean): 4.8 | Pruritus score, Before ([1]; melatonin phase, before treatment, mean, score 0 to 10): 5.6 | Objective SCORAD index, Before ([1]; melatonin phase, before treatment, mean, score 0 to 83): 38.6 | SCORAD index, Before ([1]; melatonin phase, before treatment, mean, score 0 to 103): 49.1 | Objective SCORAD index, Difference of Treatment Effect From the Linear Mixed-Effects Model, Mean [1, 4]: −8.7 | Pruritus score, Difference of Treatment Effect From the Linear Mixed-Effects Model, Mean [1, 4]: 0.0 | SCORAD index, Difference of Treatment Effect From the Linear Mixed-Effects Model, Mean [1, 4]: −9.1 | Subjective sleep score, Difference of Treatment Effect From the Linear Mixed-Effects Model, Mean [1, 4]: −0.4 | pathology scoring vs DNCB group ([2]; 3% melatonin, p=0.04): significant improvement | number of anti-CD3 positive cells per 10 HPF ([2]; 3% topical melatonin compared with DNCB group, p=0.03): significantly reduced | pathology scoring vs DNCB group ([2]; 5% melatonin, p=0.02): significant improvement | number of anti-CD3 positive cells per 10 HPF ([2]; 5% topical melatonin compared with DNCB group, p=0.0007): significantly reduced | Hyperplasia, epidermis and follicular epithelium, slight to moderate/severe: lesion score [2, 5]: 2.0 ± 0.0 | Hyperplasia, sebaceous gland and hair follicle, dermis and subcutis, slight to moderate: lesion score [2, 5]: 2.4 ± 0.5 | Inflammation, neutrophil, lymphocyte and mast cell, epidermis, dermis and subcutis, minimal to severe/high: lesion score [2, 5]: 3.8 ± 0.4 | Necrosis, epidermis, slight: lesion score [2, 5]: 0.4 ± 0.9 | Serocellular crust/parakeratosis, epidermis, slight: lesion score [2, 5]: 2.0 ± 0.0 | Vacuolization, epidermis, minimal to slight: lesion score [2, 5]: 0.8 ± 0.4 | Cumulative histological scores ([2]; Treatment (high-dose): DNCB+5% topical melatonin, mean±SD): 11.4 ± 1.1 | Hyperplasia, epidermis and follicular epithelium, slight to moderate/severe: incidence [2, 6]: 5/5 | Hyperplasia, sebaceous gland and hair follicle, dermis and subcutis, slight to moderate: incidence [2, 6]: 5/5 | Inflammation, neutrophil, lymphocyte and mast cell, epidermis, dermis and subcutis, minimal to severe/high: incidence [2, 6]: 5/5 | Infundibular hyperkeratosis, hair follicle, dermis, minimal to slight: incidence [2, 6]: 0 | Necrosis, epidermis, slight: incidence [2, 6]: 1/5 | Pustule, epidermis, slight: incidence [2, 6]: 0 | Serocellular crust/parakeratosis, epidermis, slight: incidence [2, 6]: 5/5 | Vacuolization, epidermis, minimal to slight: incidence [2, 6]: 4/5 | Hyperplasia, epidermis and follicular epithelium, slight to moderate/severe: lesion score [2, 7]: 2.4 ± 0.5 | Hyperplasia, sebaceous gland and hair follicle, dermis and subcutis, slight to moderate: lesion score [2, 7]: 2.0 ± 0.0 | Inflammation, neutrophil, lymphocyte and mast cell, epidermis, dermis and subcutis, minimal to severe/high: lesion score [2, 7]: 3.8 ± 0.4 | Infundibular hyperkeratosis, hair follicle, dermis, minimal to slight: lesion score [2, 7]: 0.8 ± 0.8 | Serocellular crust/parakeratosis, epidermis, slight: lesion score [2, 7]: 2.0 ± 0.0 | Vacuolization, epidermis, minimal to slight: lesion score [2, 7]: 0.6 ± 0.5 | Cumulative histological scores ([2]; Treatment (low-dose): DNCB+3% topical melatonin, mean±SD): 11.6 ± 1.8 | Hyperplasia, epidermis and follicular epithelium, slight to moderate/severe: incidence [2, 8]: 5/5 | Hyperplasia, sebaceous gland and hair follicle, dermis and subcutis, slight to moderate: incidence [2, 8]: 5/5 | Inflammation, neutrophil, lymphocyte and mast cell, epidermis, dermis and subcutis, minimal to severe/high: incidence [2, 8]: 5/5 | Infundibular hyperkeratosis, hair follicle, dermis, minimal to slight: incidence [2, 8]: 3/5 | Necrosis, epidermis, slight: incidence [2, 8]: 0 | Pustule, epidermis, slight: incidence [2, 8]: 0 | Serocellular crust/parakeratosis, epidermis, slight: incidence [2, 8]: 5/5 | Vacuolization, epidermis, minimal to slight: incidence [2, 8]: 3/5 | mast cell infiltration (toluidine blue) ([2]; after melatonin treatment, FIG. 8): decreased | H&E staining of the skin ([2]; both the 3% and 5% melatonin treatment group, FIG. 6): improved epidermal hyperplasia and less infiltration of lymphocytes
